Assay results: ChEMBL document CHEMBL1275371, “Synthesis, biological evaluation, and molecular docking studies of 2-chloropyridine derivatives possessing 1,3,4-oxadiazole moiety as potential antitumor agents” (Bioorg Med Chem, 2010)
Values after ≈ are worked out from the molar mass of the structure shown.

Legend:
SGC-7901 = assay: Antiproliferative activity against human SGC7901 cells after 48 hrs by MTT assay; type: functional, cell-based; conditions: SGC-7901, 48 h
[1] = target: Telomerase reverse transcriptase (Homo sapiens, UniProt O14746); assay: Inhibition of telomerase in human SGC7901 cells by TRAP assay; type: cell-based, SGC-7901
Sequence of Telomerase reverse transcriptase (O14746 whole entry): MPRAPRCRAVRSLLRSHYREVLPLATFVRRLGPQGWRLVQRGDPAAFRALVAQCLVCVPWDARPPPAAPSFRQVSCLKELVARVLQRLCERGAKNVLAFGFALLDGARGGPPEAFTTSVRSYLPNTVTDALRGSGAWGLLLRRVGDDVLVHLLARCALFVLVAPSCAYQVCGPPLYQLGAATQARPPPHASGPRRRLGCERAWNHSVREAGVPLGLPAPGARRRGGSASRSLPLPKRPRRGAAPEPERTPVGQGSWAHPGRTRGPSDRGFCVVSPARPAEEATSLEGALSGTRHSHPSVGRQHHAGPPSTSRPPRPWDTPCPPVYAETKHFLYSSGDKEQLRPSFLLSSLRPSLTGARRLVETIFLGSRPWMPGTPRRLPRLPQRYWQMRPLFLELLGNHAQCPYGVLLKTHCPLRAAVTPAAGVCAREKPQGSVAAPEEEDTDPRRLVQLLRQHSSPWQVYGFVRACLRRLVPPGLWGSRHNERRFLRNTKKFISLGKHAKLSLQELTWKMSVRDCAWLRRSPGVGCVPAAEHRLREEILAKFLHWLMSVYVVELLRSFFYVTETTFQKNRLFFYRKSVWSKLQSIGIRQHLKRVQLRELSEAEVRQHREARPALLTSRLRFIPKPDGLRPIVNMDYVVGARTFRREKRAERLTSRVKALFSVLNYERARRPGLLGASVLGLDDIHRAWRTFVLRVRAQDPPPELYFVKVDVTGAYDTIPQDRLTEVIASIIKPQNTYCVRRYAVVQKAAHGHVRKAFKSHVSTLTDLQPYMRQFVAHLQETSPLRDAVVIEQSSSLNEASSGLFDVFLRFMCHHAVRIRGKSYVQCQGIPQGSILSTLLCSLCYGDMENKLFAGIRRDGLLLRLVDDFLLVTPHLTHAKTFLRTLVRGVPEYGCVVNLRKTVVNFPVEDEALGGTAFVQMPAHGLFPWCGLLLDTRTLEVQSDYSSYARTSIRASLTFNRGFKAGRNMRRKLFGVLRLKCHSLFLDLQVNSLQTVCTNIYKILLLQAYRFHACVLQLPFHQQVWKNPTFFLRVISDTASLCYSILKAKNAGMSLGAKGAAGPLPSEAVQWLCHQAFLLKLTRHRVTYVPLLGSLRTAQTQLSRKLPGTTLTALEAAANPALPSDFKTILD

Question: With `Clc1ccc(CSc2nnc(-c3ccccn3)o2)cn1` as the molecule, how does the IC50 (SGC-7901) read?
Answer: Its IC50 is 12.6 µg/mL (≈ 41.3 µM).

Question: How did the IC50 (SGC-7901) turn out when `Clc1ccc(CSc2nnc(-c3ccco3)o2)cn1` was run?
Answer: Its IC50 is 14.3 µg/mL (≈ 48.7 µM).

Question: `Clc1ccc(CSc2nnc(-c3cccs3)o2)cn1` was tested. Which IC50 (SGC-7901) did it give?
Answer: The IC50 was 15.1 µg/mL (≈ 48.7 µM).

Question: Which results are given for `Clc1ccc(CSc2nnc(-c3cccc4ccccc34)o2)cn1`?
Answer: IC50 (SGC-7901): 2.56 µg/mL (≈ 7.24 µM); IC50 [1]: 4.2 µM

Question: How did the IC50 (SGC-7901) turn out when `Cc1ccccc1-c1nnc(SCc2ccc(Cl)nc2)o1` was run?
Answer: Its IC50 is 8.51 µg/mL (≈ 26.8 µM).

Question: For `Cc1ccc(-c2nnc(SCc3ccc(Cl)nc3)o2)cc1`, which IC50 (SGC-7901) is on record?
Answer: Its IC50 is 3.62 µg/mL (≈ 11.4 µM).

Question: How did the IC50 (SGC-7901) turn out when `COc1ccccc1-c1nnc(SCc2ccc(Cl)nc2)o1` was run?
Answer: The IC50 was 8.2 µg/mL (≈ 24.6 µM).

Question: `COc1ccc(-c2nnc(SCc3ccc(Cl)nc3)o2)cc1` was tested. Which IC50 (SGC-7901) did it give?
Answer: Its IC50 is 3.5 µg/mL (≈ 10.5 µM).

Question: With `CCOc1ccccc1-c1nnc(SCc2ccc(Cl)nc2)o1` as the molecule, how does the IC50 (SGC-7901) read?
Answer: The IC50 was 10.3 µg/mL (≈ 29.6 µM).

Question: For `CCOc1ccc(-c2nnc(SCc3ccc(Cl)nc3)o2)cc1`, which IC50 (SGC-7901) is on record?
Answer: The IC50 was 4.97 µg/mL (≈ 14.3 µM).

Question: With `Fc1ccccc1-c1nnc(SCc2ccc(Cl)nc2)o1` as the molecule, how does the IC50 (SGC-7901) read?
Answer: The IC50 was 9.12 µg/mL (≈ 28.3 µM).

Question: Which IC50 (SGC-7901) does the source give for `Fc1ccc(-c2nnc(SCc3ccc(Cl)nc3)o2)cc1` here?
Answer: The IC50 was 3.67 µg/mL (≈ 11.4 µM).

Question: `Clc1ccc(CSc2nnc(-c3ccccc3Cl)o2)cn1` was tested. Which IC50 (SGC-7901) did it give?
Answer: The IC50 was 13.4 µg/mL (≈ 39.8 µM).

Question: With `Clc1ccc(-c2nnc(SCc3ccc(Cl)nc3)o2)cc1` as the molecule, how does the IC50 (SGC-7901) read?
Answer: The IC50 was 8.62 µg/mL (≈ 25.5 µM).

Question: For `Oc1ccc(-c2nnc(SCc3ccc(Cl)nc3)o2)cc1`, which IC50 (SGC-7901) is on record?
Answer: The IC50 was over 20 µg/mL.

Question: How did the IC50 (SGC-7901) turn out when `CC(C)c1ccc(-c2nnc(SCc3ccc(Cl)nc3)o2)cc1` was run?
Answer: The IC50 was 4.32 µg/mL (≈ 12.5 µM).

Question: `Nc1ccc(-c2nnc(SCc3ccc(Cl)nc3)o2)cc1` was tested. Which IC50 (SGC-7901) did it give?
Answer: Its IC50 is 8.48 µg/mL (≈ 26.6 µM).

Question: `CN(C)c1ccc(-c2nnc(SCc3ccc(Cl)nc3)o2)cc1` was tested. Which IC50 (SGC-7901) did it give?
Answer: The IC50 was 8.9 µg/mL (≈ 25.7 µM).

Question: How did the IC50 (SGC-7901) turn out when `COc1ccc(-c2nnc(SCc3ccc(Cl)nc3)o2)c(O)c1` was run?
Answer: The IC50 was 1.61 µg/mL (≈ 4.6 µM).

Question: And the IC50 [1]?
Answer: The IC50 was 2.3 µM.

Question: Which IC50 (SGC-7901) does the source give for `COc1ccc(-c2nnc(SCc3ccc(Cl)nc3)o2)cc1OC` here?
Answer: Its IC50 is 4.48 µg/mL (≈ 12.3 µM).

Question: Which IC50 (SGC-7901) does the source give for `COc1cc(-c2nnc(SCc3ccc(Cl)nc3)o2)cc(OC)c1OC` here?
Answer: Its IC50 is 10.2 µg/mL (≈ 25.9 µM).

Question: `O=c1[nH]cc(F)c(=O)[nH]1` [FLUOROURACIL] was tested. Which IC50 (SGC-7901) did it give?
Answer: Its IC50 is 7.36 µg/mL (≈ 56.6 µM).
